Measurements as given in patent US5827245A, “Transdermal therapeutic system comprising the active subtance 17-β-Estradiol (Anhydrous)” (LTS Lohmann Therapie-Systeme GmbH & Co. KG, priority 1992, dated 1998).

What was measured:
[1] = Thermal stability / conversion of 17-β-estradiol semihydrate to the anhydrous form; assay type: physicochemical
Procedure: At room temperature and usual relative humidity of air (20 to 60% relative humidity), 17-β-estradiol is not present in one of the two known modifications (I and II) which are free from crystal water but as a semihydrate (Busetti a. Hospital, Acta Cryst. 1972, B28, 560). Due to the stratified structure of the crystal compound, which is stabilized by hydrogen bridges, and its diffusion density, the hydrate can be heated for a short period of time to temperatures of about 170° C. (Kuhnert-Brandstatter u. Winkler (1976) Scientia Pharmaceutica 44 (3), 177-190) while remaining undecomposed. However, by way of micronization, i.e. increasing the surface of the crystals, it is possible to quantitatively convert 17-β-estradiol semihydrate to its anhydrous form at as low a temperature as about 120° C. According to our own observations, conversion already occurs at about 90° C. where heating is slow (0.2 to 1 K/min) and particularly fine material is used.

[2] = short period of time; cited from earlier work

temperature of quantitative conversion to the anhydrous form ([1]; micronized): about 120 °C | temperature at which conversion already occurs ([1]; slow heating (0.2 to 1 K/min), particularly fine material, own observations): about 90 °C
SMILES: C[C@]12CC[C@@H]3c4ccc(O)cc4CC[C@H]3[C@@H]1CC[C@@H]2O [17-β-estradiol semihydrate]
temperature to which the hydrate can be heated while remaining undecomposed [2]: about 170 °C
